Test systems include SNB-78; DMS-273; RXF 631; DLD-1; XF498; LXFL 529; HOP-18; DMS-114; M19-MEL.
Common to all, as to assay: NCI anticancer screen, dose series, 48 h

Here are results for 18 compounds from ChEMBL document CHEMBL1201862, “PubChem BioAssay data set” (2004).

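A five-concentration, 48-hour dose response in 96-well plates underlies each endpoint, interpolated linearly between surrounding concentrations. At the GI50, growth is halved.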 The source made the active and inactive calls. Cut-off read from the data, not from the text of the source: active = GI50 up to about 1.1 µM and inactive = higher.

With `COc1ccc(C(c2ccc(C(C)C)cc(OC)c2=O)c2ccc(C(C)C)cc(OC)c2=O)cc1`, the GI50 with SNB-78 is 13.2 µM (inactive); in the assay on DMS-273, 14.8 µM (inactive); in the assay on RXF 631, 15 µM (inactive); with DLD-1, 6.3 µM (inactive); in the assay with XF498, 20.4 µM (inactive); in the assay on LXFL 529, 14.5 µM (inactive). Further, the GI50 with HOP-18 is 25.4 µM (inactive); in the assay on DMS-114 it was 12.3 µM (inactive); with M19-MEL, 14.1 µM (inactive).
On to `COC1(C)C(=O)N2C1N(C(=O)OCc1ccccc1)CC2(C)C` (stereo not given), for which the GI50 in the assay with DMS-273, in the assay with DLD-1, with XF498, with LXFL 529, in the assay with DMS-114 and in the assay with M19-MEL was > 100 µM (inactive) throughout.
`C[C@]12CC[C@H](OCCC#N)CC1=CC[C@@H]1C2CC[C@]2(C)/C(=N/OCCC#N)CCC12` (stereo not given in full): the GI50 in the assay with SNB-78 was 22.8 µM (inactive); with DMS-273, 42.2 µM (inactive); in the assay on DLD-1, > 100 µM (inactive); in the assay on XF498 it was 3.4 µM (inactive); in the assay with LXFL 529, > 74.6 µM (inactive); in the assay on HOP-18 it was > 100 µM (inactive). Besides, the GI50 was 5.12 µM (inactive) in the assay on DMS-114 and > 100 µM (inactive) with M19-MEL.
Turning to `COc1ccc(-c2oc3cc(O)c(OC)c(O)c3c(=O)c2O)cc1` [BETULETOL], the GI50 is 81.3 µM (inactive) with SNB-78; 9.68 µM (inactive) with DMS-273; 21.5 µM (inactive) with RXF 631; 13.4 µM (inactive) with DLD-1; 24.9 µM (inactive) with XF498; 20.1 µM (inactive) in the assay on LXFL 529. The GI50 in the assay on HOP-18 is 67.3 µM (inactive); in the assay with M19-MEL, 38.8 µM (inactive).
For `Cc1cccc(/N=C/c2ccc(N(CCC#N)S(=O)(=O)c3ccccc3)cc2C)c1`, the GI50 is > 100 µM (inactive) with DMS-273; > 100 µM (inactive) in the assay with RXF 631; > 100 µM (inactive) in the assay on DLD-1; > 100 µM (inactive) with XF498; 29.6 µM (inactive) in the assay with LXFL 529; 63.7 µM (inactive) in the assay on DMS-114. Also, the GI50 in the assay with M19-MEL is > 100 µM (inactive).
In the case of `CC(=O)OC[C@@H]1[C@H]2CC(=O)O[C@H]2C[C@H]1OC(C)=O`, the GI50 with SNB-78, with DMS-273, in the assay on DLD-1, in the assay with LXFL 529, in the assay with HOP-18 and in the assay on DMS-114 was > 100 µM (inactive) each time. In addition, in the assay on M19-MEL, the GI50 was > 100 µM (inactive).
For the compound `Cc1[nH]c2ccccc2c1C(=O)/C=C/c1ccccc1O`, the GI50 in the assay with DMS-273, in the assay on DLD-1, in the assay with XF498, in the assay on LXFL 529, in the assay with HOP-18 and in the assay with M19-MEL was > 100 µM (inactive) each time.
With `Cc1ccc(S(=O)(=O)C(C#N)c2nc3ccccc3nc2-n2cccn2)cc1` (stereo not given), the GI50 in the assay with SNB-78 was > 100 µM (inactive); in the assay with DMS-273, > 100 µM (inactive); in the assay on DLD-1, > 100 µM (inactive); in the assay with XF498, > 100 µM (inactive); with LXFL 529, > 100 µM (inactive); with HOP-18, 86.9 µM (inactive). Also, the GI50 in the assay with DMS-114 and with M19-MEL was > 100 µM (inactive) each time.
For the compound `CCOC(=O)C1S/C(=N\C(=N)N[N+](=O)[O-])N=C1C` (stereo not given), the GI50 in the assay with DLD-1, in the assay with XF498, with LXFL 529, in the assay with HOP-18, in the assay on DMS-114 and in the assay with M19-MEL was > 100 µM (inactive) each time.
With `COC(=O)CCSC(=O)Nc1ccccc1Cl`, the GI50 in the assay with SNB-78, in the assay with DMS-273, in the assay with DLD-1, in the assay with LXFL 529 and in the assay on DMS-114 was > 100 µM (inactive) throughout.
Turning to `COc1ccc2c(c1)c(=O)c1c(NCCN(C)C)ccc3nnn2c31`, the GI50 with SNB-78 is 4.35 µM (inactive); in the assay on RXF 631, 2.21 µM (inactive); with DLD-1 it was 1.71 µM (inactive); with LXFL 529 it was 2.91 µM (inactive); with HOP-18, 0.504 µM (active); in the assay on DMS-114, 3.64 µM (inactive). In addition, the GI50 in the assay with M19-MEL is 6.61 µM (inactive).
Turning to `Nc1ccn([C@@H]2C=C(CO)[C@@H](O)[C@H]2O)c(=O)n1`, the GI50 in the assay with SNB-78 was 3.28 µM (inactive); in the assay on DMS-273 it was 0.256 µM (active); with DLD-1 it was 0.151 µM (active); in the assay on XF498 it was 6.22 µM (inactive); with HOP-18 it was 8.09 µM (inactive); in the assay with DMS-114 it was 0.417 µM (active). The GI50 in the assay on M19-MEL was 0.308 µM (active).
As for `COC1OC(C)C2OC(C)(C)OC2C1OC(C)=O` (stereo not given), the GI50 with SNB-78, in the assay on DMS-273, in the assay with RXF 631, with DLD-1, in the assay on XF498 and with LXFL 529 was > 100 µM (inactive) each time. The GI50 in the assay with HOP-18 and in the assay on M19-MEL was > 100 µM (inactive) in each case.
Consider `CN(C)CCNC(=O)c1cccc2cc3ccc4ccccc4c3nc12`, for which the GI50 in the assay on SNB-78 is 0.182 µM (active); with DMS-273, 0.0224 µM (active); with DLD-1, 0.0561 µM (active); in the assay with XF498 it was 0.056 µM (active); in the assay with LXFL 529, 0.128 µM (active); with HOP-18, 0.205 µM (active).
For `O=C(CC1(O)C(=O)Nc2c(Cl)cc(Cl)cc21)c1ccc(F)cc1` (stereo not given), the GI50 in the assay with SNB-78 is 83.9 µM (inactive); in the assay on DMS-273 it was 38.2 µM (inactive); in the assay on RXF 631, 32.5 µM (inactive); in the assay with DLD-1, 46.8 µM (inactive); in the assay on XF498, 14.4 µM (inactive); in the assay on LXFL 529, 31.9 µM (inactive). The GI50 with HOP-18 was 72.1 µM (inactive); with DMS-114, 23.9 µM (inactive); with M19-MEL it was 19 µM (inactive).
For `COc1ccc(/N=N/c2c(-c3ccccc3)nn(C(=O)CC(=O)Nc3cccc(Cl)c3)c2-c2ccccc2)cc1`, the GI50 in the assay with DMS-273 is > 100 µM (inactive); in the assay on DLD-1, 40.6 µM (inactive); in the assay with XF498 it was > 100 µM (inactive); in the assay on LXFL 529 it was > 100 µM (inactive); with HOP-18, 66.8 µM (inactive); in the assay with DMS-114 it was 45.8 µM (inactive). Also, the GI50 in the assay with M19-MEL was > 100 µM (inactive).
On to `C=CCC1(CN(C)C)CC/C(=C\c2ccc(Cl)cc2)C1=O` (stereo not given), for which the GI50 in the assay on SNB-78 was 27.4 µM (inactive); with DMS-273, 24.7 µM (inactive); in the assay with DLD-1 it was 32.1 µM (inactive); with XF498, 77.6 µM (inactive); with LXFL 529, 27.5 µM (inactive); with HOP-18, > 54.1 µM (inactive). The results for the GI50 in the assay with DMS-114 and in the assay on M19-MEL were 27.4 µM (inactive) and 32.3 µM (inactive), respectively.
For `CC[C@@]1(OC(=O)C(N)CCCCN)C(=O)OCc2c1cc1n(c2=O)Cc2cc3ccccc3nc2-1` (stereo not given in full), the GI50 is 0.372 µM (active) in the assay on SNB-78; < 0.01 µM (active) in the assay with DMS-273; 0.494 µM (active) in the assay with DLD-1; 0.201 µM (active) in the assay with XF498; 0.372 µM (active) in the assay with LXFL 529; 0.0785 µM (active) with HOP-18. For the same compound, the GI50 in the assay on DMS-114 is < 0.0157 µM (active); in the assay on M19-MEL it was 0.0619 µM (active).
